Here are results for six compounds from ChEMBL document CHEMBL1201862, “PubChem BioAssay data set” (2004).

The source made the active and inactive calls.

Test [1] deals with E3 ubiquitin-protein ligase Mdm2 (Homo sapiens, UniProt Q00987). The test is described as follows: MDM2-luc reporter signal enhancers, multi-concentration potency testing, MDM2 ubiquitin-protein ligase inhibitor program, whole-cell format, luminescence detection, 384-well microplate (AID 1394).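 Note: MDM2 E3 inhibitors raise luminescence so EC50 is for signal enhancement.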 The format is functional.
Sequence of E3 ubiquitin-protein ligase Mdm2 (Q00987 whole entry, the tested form may be a part): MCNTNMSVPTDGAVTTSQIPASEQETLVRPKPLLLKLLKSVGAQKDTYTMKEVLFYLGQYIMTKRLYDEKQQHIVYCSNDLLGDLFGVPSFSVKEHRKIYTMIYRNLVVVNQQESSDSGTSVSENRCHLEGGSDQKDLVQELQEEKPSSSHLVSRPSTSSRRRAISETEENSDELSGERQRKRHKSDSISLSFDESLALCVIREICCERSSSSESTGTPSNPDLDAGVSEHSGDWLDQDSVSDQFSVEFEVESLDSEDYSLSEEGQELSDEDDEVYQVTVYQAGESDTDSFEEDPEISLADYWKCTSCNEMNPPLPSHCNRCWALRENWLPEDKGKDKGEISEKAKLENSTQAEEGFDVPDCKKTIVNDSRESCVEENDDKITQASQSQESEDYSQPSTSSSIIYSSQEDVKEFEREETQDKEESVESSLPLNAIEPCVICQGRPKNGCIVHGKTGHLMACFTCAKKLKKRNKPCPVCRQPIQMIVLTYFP
The target in test [2] is T1, Carboxy-terminal domain RNA polymerase II polypeptide A small phosphatase 1 (Homo sapiens, UniProt Q9GZU7).
T1 sequence (Q9GZU7 whole entry): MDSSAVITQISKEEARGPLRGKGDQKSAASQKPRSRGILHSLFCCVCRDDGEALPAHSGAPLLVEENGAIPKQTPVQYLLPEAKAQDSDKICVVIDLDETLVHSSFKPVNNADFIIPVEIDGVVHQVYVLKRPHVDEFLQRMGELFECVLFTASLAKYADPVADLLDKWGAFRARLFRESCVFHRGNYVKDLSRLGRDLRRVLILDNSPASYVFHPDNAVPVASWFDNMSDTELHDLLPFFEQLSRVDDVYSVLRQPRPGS
Nature of the test: CTDSP1 inhibitors, concentration-response, biochemical, absorbance readout, ultra-high-throughput screen actives (AID 540297). The format is functional.

Test [3] deals with T2, Tyrosine-protein phosphatase non-receptor type 7 (Homo sapiens, UniProt P35236).
T2 sequence (P35236 whole entry): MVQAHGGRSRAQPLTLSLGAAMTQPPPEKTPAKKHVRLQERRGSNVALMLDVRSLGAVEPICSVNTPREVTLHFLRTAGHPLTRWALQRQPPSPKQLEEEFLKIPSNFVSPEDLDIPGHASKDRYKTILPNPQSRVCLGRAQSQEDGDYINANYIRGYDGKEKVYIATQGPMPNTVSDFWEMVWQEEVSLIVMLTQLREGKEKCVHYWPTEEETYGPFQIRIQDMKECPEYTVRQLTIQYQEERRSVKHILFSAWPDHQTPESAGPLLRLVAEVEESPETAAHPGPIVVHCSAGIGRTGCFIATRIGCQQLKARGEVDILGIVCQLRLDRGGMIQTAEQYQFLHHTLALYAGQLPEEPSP
The test is described as follows: HePTP tyrosine phosphatase activity blockers – biochemical, absorbance, leukemia target, primary screen (AID 521). The format is functional.

In another test the target is Paired box protein Pax-8 (Homo sapiens, UniProt Q06710). Nature of the test: PAX8 transcriptional activity inhibition in RMG-I – RMG-I cells, luciferase, cherry-pick, dose response (AID 687027).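 Note: luciferase reporter driven by Pax8 target thyroperoxidase promoter measured by SteadyGlo luminescence.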 The format is functional, cell-based.
Sequence of Paired box protein Pax-8 (Q06710 whole entry): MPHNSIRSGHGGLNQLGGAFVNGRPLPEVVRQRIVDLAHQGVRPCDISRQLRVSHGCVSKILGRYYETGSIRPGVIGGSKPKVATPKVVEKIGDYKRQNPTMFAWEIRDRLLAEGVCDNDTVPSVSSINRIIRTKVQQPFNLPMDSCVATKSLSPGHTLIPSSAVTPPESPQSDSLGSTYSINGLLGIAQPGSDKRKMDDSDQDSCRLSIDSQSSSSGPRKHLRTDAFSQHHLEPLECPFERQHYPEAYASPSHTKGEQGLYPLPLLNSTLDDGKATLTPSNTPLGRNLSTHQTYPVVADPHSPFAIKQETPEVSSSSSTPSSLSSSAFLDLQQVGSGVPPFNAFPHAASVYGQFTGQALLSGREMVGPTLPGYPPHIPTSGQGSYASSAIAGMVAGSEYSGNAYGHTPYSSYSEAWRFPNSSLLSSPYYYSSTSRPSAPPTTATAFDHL
Test [4] in a line: general cell-killing toxicity readout – plate reader, dry powder samples, cytotoxicity control for PAX8 inhibitor project, dose response (AID 743021). The format is functional, cell-based.
Test [5] in a line: Luminescent dose response cell-based high throughput screening assay for inhibitors of the Janus kinase 2 mutant JAK2V617F. [Related pubchem assays: 1446 (Primary screen.), 1521 (Confirmation assay.), 1486 (Counter screen.)]. The class given is functional. A general note: A counterscreen serves to expose hits that act by an unwanted route or on another target.
Test [6] concerns the target Protein-tyrosine kinase 2-beta (Homo sapiens, UniProt Q14289).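 Note: potency of inhibitors of PYK2 kinase phosphorylation of poly-GT substrate.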
Test [7] deals with T3, Polyadenylate-binding protein 1 (Homo sapiens, UniProt P11940). The test is described as follows: MLLE domain peptide-binding blockers, IC50 – biochemical, fluorescence polarization, FITC-PAM2 peptide, dose response (AID 602259). The format is functional. To be noted: read-out: IC50_Mean. Background: In fluorescence polarisation assays a small probe gives low polarisation when free and higher when bound to something large.
T3 sequence (P11940 whole entry, the tested form may be a part): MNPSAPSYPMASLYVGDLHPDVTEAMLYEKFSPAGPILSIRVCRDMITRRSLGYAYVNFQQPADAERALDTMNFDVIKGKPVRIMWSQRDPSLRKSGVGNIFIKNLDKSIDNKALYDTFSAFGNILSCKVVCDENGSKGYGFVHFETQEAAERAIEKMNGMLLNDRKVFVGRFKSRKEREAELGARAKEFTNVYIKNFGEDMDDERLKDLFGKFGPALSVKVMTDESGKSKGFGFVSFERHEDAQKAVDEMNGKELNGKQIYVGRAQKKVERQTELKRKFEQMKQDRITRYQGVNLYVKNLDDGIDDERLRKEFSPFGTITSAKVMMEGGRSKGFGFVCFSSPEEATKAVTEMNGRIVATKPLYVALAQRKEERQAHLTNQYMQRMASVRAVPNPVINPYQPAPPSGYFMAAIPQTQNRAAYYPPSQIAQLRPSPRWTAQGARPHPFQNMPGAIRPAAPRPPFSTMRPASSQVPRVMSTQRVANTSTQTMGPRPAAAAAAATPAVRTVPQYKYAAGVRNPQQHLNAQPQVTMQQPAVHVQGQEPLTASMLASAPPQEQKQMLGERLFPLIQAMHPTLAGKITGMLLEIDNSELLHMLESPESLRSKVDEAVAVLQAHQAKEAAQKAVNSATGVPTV

The target of test [8] is T3, Polyadenylate-binding protein 1. The test is described as follows: MLLE binding blockers, Cy5 peptide tracer – biochemical, fluorescence polarization, Cy5-PAM2 peptide, secondary, miRNA deadenylation inhibitor project, dose response (AID 602260). The class given is functional. To be noted: read-out: IC50_Mean.
The next test has as its system Danio rerio. The test is described as follows: In Vivo Angiogenesis Dose-Response Confirmation. [Related pubchem assays: 732 (Assay preceding this confirmatory assay.)]. The format is functional, organism-based.
For test [9], the target named is T4, Sphingosine 1-phosphate receptor 4 (Homo sapiens, UniProt O95977).
T4 sequence (O95977 whole entry): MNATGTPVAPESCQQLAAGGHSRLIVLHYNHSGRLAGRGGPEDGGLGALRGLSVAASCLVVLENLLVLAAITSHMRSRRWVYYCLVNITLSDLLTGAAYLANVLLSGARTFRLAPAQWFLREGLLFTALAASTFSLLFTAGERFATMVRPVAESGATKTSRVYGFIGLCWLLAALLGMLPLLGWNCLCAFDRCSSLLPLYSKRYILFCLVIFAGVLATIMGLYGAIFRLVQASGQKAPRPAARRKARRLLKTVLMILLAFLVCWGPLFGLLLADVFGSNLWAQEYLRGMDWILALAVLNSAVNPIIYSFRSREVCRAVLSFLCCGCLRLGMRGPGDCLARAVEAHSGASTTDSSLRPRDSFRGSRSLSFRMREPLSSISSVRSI
The test is described as follows: Late stage fluorescence dose response cell-based screening assay for antagonists of the Sphingosine 1-Phosphate Receptor 4 (S1P4). [Related pubchem assays: 1524 (Confirmation screen (S1P4 antagonists).), 1510 (Primary screen (S1P4 antagonists).), 1853 (Summary AID (S1P4 antagonists).), 1692 (Dose response screen (S1P4 antagonists).)]. The class given is functional.

The nature of test [10]: viability of uninfected HEp-2 cells – cell-based, HTS, cytotoxicity control for RSV inhibitor project, dose response (AID 2410). The class given is functional. The conditions noted are these: human respiratory syncytial virus.
For a further test, the target named is Beta Lactamase (Pseudomonas aeruginosa, UniProt Q932Y6). The test is described as follows: BLA reporter interference, concentration series – BLA reporter cells, FRET fluorescence, artefact control for NOD2-RIPK2 interaction inhibitor project, dose response (AID 651552). The class given is functional, cell-based.
Sequence of Beta Lactamase (Q932Y6 whole entry): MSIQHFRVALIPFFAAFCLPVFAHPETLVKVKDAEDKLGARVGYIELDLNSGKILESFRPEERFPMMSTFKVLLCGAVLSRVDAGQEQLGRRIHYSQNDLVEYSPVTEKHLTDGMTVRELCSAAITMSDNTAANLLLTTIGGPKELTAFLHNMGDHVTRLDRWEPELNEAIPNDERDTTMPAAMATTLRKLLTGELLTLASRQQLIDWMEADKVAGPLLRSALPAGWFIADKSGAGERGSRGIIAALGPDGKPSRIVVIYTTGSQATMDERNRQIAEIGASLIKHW
In test [11] the target is T5, Replicative DNA helicase DnaB (Mycobacterium tuberculosis, UniProt P9WMR3).
T5 sequence (P9WMR3 whole entry): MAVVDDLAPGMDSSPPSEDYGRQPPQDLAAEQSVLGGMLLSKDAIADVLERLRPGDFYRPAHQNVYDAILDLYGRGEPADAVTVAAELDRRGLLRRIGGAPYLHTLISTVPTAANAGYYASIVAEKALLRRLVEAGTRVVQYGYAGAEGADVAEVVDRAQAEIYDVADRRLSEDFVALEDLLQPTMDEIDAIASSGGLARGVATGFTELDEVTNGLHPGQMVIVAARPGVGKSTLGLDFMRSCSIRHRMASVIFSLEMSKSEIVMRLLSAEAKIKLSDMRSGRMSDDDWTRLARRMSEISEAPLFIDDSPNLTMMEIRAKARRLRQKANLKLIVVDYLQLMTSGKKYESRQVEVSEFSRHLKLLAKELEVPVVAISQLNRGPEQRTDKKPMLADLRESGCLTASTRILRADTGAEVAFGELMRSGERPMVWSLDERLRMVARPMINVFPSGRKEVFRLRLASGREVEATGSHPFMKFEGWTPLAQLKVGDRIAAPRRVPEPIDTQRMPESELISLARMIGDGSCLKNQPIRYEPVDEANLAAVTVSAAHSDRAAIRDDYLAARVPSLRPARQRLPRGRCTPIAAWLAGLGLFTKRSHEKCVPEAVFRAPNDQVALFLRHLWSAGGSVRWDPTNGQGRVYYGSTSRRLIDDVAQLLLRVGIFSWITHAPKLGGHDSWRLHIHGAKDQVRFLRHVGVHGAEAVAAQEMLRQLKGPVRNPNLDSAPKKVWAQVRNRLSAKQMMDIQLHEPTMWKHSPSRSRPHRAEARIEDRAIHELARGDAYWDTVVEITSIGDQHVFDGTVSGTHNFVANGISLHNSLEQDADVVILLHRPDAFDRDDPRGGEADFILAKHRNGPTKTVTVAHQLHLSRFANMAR
The test is described as follows: DnaB intein splicing inhibitors, dose response, biochemical, cell-free fluorescence (AID 449749). The format is functional.

The target of test [12] is T4, Sphingosine 1-phosphate receptor 4. Nature of the test: Fluorescence dose response cell-based high throughput screening assay for antagonists of the Sphingosine 1-Phosphate Receptor 4 (S1P4). [Related pubchem assays: 1524 (Confirmation in triplicates.), 1510 (Primary screen.)]. The class given is functional.
A short description of test [13]: NIH-3T3 fibroblast cytotoxicity, dose response, cytotoxicity control, cell-based, fluorescence, Alamar Blue, secondary assay (AID 2327).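 Note: NIH-3T3 mouse fibroblasts cultured with fluconazole at 8 µg/mL.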 The format is functional. (In general: Alamar Blue is a resazurin reagent that responds to reducing activity.)
Test [14] deals with Sphingosine 1-phosphate receptor 1 (Homo sapiens, UniProt P21453). The format is functional.
Sequence of Sphingosine 1-phosphate receptor 1 (P21453 whole entry, the tested form may be a part): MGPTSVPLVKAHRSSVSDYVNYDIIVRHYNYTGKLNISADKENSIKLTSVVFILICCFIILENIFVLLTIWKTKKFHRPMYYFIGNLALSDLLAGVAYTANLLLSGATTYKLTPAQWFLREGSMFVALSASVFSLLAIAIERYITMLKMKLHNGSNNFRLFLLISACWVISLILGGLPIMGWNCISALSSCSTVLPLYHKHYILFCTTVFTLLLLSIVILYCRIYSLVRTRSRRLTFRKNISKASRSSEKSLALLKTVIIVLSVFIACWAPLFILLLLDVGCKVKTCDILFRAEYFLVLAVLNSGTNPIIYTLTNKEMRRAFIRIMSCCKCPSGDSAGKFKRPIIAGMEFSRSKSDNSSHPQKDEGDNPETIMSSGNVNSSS
Test [15] can be described thus: Fluorescence-based cell-based high throughput dose response assay for inhibitors of the interaction of nucleotide-binding oligomerization domain containing 2 (NOD2) and the receptor-interacting serine-threonine kinase 2 (RIPK2). The conditions noted are these: Homo sapiens. The format is functional.
The target of test [16] is T6, Fatty acid synthase (Homo sapiens, UniProt P49327). The test is described as follows: inhibition of human FAS-TE enzyme activity – biochemical, kinetic fluorescence intensity, dose response (AID 624326).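 Note: rate of fluorescence rise from hydrolysis of a fluorogenic O-methyl fluorescein ester substrate.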 The class given is functional.
T6 sequence (P49327 whole entry): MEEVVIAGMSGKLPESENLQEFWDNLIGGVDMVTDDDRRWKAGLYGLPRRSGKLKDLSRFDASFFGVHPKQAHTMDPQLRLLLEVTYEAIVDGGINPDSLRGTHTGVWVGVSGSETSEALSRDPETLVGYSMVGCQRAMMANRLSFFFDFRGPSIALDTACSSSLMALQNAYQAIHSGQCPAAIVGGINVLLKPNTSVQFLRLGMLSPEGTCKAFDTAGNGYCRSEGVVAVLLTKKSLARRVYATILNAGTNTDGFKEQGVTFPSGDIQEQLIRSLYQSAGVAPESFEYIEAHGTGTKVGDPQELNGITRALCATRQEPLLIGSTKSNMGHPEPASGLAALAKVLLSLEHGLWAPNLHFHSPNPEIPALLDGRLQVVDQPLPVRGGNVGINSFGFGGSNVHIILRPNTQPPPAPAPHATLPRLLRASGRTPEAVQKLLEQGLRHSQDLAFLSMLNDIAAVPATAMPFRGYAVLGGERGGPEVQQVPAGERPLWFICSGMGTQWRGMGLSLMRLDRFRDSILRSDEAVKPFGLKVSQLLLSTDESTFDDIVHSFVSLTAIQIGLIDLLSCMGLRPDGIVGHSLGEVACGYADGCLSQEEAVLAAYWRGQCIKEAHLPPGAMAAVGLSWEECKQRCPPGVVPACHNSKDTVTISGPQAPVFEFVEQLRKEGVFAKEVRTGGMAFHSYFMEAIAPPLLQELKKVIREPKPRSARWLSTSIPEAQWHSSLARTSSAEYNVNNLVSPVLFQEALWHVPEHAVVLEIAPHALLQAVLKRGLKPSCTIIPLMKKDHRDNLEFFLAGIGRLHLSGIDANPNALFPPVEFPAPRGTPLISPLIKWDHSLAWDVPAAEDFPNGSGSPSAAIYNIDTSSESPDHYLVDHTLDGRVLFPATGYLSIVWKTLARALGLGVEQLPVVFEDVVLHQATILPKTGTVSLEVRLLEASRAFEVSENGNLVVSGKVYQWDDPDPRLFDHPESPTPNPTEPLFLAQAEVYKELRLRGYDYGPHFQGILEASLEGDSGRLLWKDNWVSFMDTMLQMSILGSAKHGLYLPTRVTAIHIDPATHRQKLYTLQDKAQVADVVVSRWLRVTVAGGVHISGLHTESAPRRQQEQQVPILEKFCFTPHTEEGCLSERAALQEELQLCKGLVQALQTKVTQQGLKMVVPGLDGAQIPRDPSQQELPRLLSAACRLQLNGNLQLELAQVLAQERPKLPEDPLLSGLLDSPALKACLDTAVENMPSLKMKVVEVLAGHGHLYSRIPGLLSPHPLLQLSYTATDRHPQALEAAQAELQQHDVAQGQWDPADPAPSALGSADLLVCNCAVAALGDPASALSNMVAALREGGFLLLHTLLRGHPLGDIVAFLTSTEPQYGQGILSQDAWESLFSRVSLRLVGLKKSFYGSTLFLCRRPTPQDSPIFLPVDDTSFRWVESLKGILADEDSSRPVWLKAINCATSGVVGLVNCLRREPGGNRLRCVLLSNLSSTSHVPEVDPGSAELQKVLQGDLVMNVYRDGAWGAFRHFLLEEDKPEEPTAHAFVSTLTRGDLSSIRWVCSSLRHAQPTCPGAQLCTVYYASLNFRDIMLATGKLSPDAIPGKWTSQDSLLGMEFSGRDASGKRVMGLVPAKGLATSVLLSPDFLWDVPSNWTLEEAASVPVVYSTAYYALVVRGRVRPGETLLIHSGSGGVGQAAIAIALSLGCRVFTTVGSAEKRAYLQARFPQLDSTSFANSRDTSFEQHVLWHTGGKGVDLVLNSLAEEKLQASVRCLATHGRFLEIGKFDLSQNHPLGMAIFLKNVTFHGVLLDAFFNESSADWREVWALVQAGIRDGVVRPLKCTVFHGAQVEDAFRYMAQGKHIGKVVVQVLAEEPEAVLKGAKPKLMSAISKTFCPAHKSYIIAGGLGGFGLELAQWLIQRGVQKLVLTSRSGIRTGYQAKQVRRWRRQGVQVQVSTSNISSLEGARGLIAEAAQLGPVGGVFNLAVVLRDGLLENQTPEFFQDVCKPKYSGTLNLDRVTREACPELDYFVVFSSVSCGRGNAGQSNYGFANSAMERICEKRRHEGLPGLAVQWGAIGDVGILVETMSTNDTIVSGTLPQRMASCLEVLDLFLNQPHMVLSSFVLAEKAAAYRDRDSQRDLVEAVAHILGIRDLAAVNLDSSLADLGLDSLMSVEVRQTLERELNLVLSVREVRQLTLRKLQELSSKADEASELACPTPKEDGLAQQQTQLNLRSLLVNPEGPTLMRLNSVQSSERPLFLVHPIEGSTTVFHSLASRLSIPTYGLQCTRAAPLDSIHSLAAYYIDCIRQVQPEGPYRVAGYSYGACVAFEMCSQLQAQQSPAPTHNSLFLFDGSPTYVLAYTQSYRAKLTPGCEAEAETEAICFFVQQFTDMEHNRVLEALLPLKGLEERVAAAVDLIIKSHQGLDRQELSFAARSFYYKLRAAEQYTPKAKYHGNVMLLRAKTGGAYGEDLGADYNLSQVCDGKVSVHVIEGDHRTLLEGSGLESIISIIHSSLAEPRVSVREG
The target in test [17] is Heat shock protein HSP 90-alpha (Homo sapiens, UniProt P07900). The class given is functional, organism-based.
Test [18] in a line: fluconazole-exposed Candida albicans growth modulators – fluorescence, retest, confirmation (AID 2467). The class given is functional, cell-based.
Test [19] deals with T6, Fatty acid synthase. Nature of the test: inhibition of human FAS-TE enzyme activity – biochemical, endpoint fluorescence intensity, uHTS hits, dose response (AID 624327).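 Note: fluorescence from hydrolysis of an O-methyl fluorescein acyl ester substrate by the enzyme.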 The format is functional.
The target in another test is T7, Protein RecA (Mycobacterium tuberculosis, UniProt P9WHJ3).
T7 sequence (P9WHJ3 whole entry): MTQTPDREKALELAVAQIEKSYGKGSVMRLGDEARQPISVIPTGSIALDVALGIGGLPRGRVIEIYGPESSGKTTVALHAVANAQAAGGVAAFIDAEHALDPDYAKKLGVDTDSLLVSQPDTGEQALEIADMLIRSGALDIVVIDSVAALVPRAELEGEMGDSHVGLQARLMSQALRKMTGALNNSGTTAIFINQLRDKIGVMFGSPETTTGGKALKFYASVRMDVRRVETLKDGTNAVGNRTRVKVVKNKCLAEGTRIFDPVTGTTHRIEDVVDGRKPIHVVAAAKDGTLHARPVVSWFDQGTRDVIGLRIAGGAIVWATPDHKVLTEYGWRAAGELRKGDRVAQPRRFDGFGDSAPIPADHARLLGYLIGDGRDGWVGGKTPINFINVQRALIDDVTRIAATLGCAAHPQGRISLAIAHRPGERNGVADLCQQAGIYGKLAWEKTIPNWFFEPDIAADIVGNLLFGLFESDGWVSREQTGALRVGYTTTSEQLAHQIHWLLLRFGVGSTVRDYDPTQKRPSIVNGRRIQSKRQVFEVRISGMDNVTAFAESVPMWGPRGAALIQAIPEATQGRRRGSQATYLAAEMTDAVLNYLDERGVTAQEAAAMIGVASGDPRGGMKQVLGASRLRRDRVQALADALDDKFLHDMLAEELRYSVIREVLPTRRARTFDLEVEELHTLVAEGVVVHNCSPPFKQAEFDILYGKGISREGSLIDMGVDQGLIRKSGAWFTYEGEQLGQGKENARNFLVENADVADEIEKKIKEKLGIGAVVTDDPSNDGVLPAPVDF
The test is described as follows: Fluorescence Cell-Free Homogeneous Dose Retest to Identify Inhibitors of RecA-Intein Splicing Activity. [Related pubchem assays (depositor defined):AID2097, AID2223, AID489010, AID492950]. The format is functional.

By EC50 is commonly meant the concentration at which the effect is half-maximal. For the compound `O=C1CCN(Cc2ccccc2)S(=O)(=O)c2ccccc21`, the EC50 in test [1] is given as 3.06 µM (not active). Further, the IC50 in test [2] was 39.3 µM (active).

With `CC(=O)Oc1oc(-c2ccccc2)nc1/C=N/c1ccccn1`, in [3], the IC50 was > 100 µM (not active).

A word on the AC50: it is the concentration at which the activity in the assay is half-maximal. Regarding `O=C(CCl)/N=c1\sccn1Cc1cccc2ccccc12`, the concentration at half-maximal activity (AC50) on Paired box protein Pax-8 was 0.572 µM (active); in test [4], 1.66 µM (active). Moreover, the IC50 in test [5] was 0.224 µM (active).

For `CCOC(=O)CSc1nc(C2CC2)nc2ccccc12`, the figures for the IC50 in [6], in test [7] and in test [8] were > 69.5 µM (not active), > 66 µM (inactive) and > 66 µM (inactive), respectively.

In the case of `Cc1ccc2c(c1)/C(=C1/Nc3ccc(Br)cc3/C1=N\OCCN1CCNCC1)C(=O)N2`, the IC50 in the test with Danio rerio is 3.28 µM (not active).

The CC50 is the concentration giving 50% cytotoxicity. As to `O=C(Nc1ccccc1)c1nnsc1S(=O)(=O)c1ccc(Cl)cc1`, the IC50 in test [9] is 11.2 µM (not active); at Beta Lactamase it was 18.8 µM (inactive); in test [12], 1.04 µM (active); in test [14], 23.4 µM (not active); in [15], 3.5 µM (active); on Fatty acid synthase [16], 5.14 µM (active). Moreover, the IC50 at Fatty acid synthase [19] is 8 µM (active). Further, the CC50 in test [10] was 13.4 µM (active). Besides, the concentration at half-maximal activity (AC50) in test [11] was 3.53 µM (active); in test [17], 0.293 µM (active). The EC50 in test [13] was 9.03 µM (active); in [18], > 38 µM (not active); on Protein RecA, 5.71 µM (active).
